ChEMBL document CHEMBL5465560, “Selectivity Literature for EUbOPEN Chemogenomic Library” (2024)

Assays:
[1] = biological target: T1, Serine/threonine-protein kinase TAO1 (Homo sapiens) (UniProt Q7L7X3); test: Selectivity interaction (KinomeScan (DiscoverX)) EUB0000666a TAOK1; conditions: at 10 µM
T1 sequence (whole entry): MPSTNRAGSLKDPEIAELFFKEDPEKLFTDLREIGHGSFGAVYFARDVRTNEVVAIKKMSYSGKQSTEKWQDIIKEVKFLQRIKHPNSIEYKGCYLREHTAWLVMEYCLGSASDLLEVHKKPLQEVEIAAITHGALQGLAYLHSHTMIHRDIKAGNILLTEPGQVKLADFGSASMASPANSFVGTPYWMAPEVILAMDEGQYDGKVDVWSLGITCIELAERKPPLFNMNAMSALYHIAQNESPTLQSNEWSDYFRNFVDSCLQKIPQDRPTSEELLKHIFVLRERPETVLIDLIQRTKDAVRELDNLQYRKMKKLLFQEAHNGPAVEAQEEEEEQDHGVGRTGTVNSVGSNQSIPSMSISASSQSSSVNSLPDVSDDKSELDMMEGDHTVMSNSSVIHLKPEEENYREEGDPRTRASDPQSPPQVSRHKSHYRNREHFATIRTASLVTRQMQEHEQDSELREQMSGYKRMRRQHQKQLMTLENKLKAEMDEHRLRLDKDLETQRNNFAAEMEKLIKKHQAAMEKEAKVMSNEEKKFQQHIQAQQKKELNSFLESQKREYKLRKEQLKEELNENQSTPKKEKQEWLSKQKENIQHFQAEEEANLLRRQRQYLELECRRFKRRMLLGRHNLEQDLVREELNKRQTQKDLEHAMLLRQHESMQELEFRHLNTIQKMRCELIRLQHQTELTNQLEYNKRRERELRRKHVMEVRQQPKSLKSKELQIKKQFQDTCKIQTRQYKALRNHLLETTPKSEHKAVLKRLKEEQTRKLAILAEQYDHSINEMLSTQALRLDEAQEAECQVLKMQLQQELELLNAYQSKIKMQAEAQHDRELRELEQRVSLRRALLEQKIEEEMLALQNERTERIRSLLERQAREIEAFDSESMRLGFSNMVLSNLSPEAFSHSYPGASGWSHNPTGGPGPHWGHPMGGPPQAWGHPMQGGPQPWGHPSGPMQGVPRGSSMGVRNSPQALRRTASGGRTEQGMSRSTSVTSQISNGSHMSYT

[2] = biological target: T2, Mitogen-activated protein kinase kinase kinase 3 (Homo sapiens) (UniProt Q99759); test: Selectivity interaction (ActivX KiNativ screen (kinase selectivity in THP-1 cell lysates)) EUB0000639a MAP3K3; assay type: subcellular; conditions: lysate
T2 sequence (whole entry): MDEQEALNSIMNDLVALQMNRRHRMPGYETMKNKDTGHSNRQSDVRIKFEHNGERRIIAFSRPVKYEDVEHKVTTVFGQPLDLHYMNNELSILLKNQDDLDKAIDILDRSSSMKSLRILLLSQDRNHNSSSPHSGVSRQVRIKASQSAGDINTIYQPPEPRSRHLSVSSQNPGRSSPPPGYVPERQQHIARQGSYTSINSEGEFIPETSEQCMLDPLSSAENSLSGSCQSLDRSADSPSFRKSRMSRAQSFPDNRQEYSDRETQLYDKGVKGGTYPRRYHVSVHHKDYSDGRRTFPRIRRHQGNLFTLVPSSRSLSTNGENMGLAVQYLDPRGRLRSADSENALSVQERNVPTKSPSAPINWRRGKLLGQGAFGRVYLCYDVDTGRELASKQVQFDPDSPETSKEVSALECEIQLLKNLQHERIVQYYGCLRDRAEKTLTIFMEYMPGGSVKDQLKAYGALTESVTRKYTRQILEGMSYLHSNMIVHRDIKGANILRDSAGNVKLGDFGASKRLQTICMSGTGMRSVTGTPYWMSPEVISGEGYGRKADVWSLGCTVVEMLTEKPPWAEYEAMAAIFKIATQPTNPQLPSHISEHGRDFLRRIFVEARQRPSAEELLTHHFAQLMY

[3] = biological target: T3, Mitogen-activated protein kinase kinase kinase 19 (Homo sapiens) (UniProt Q56UN5); test: Selectivity interaction (KinomeScan (DiscoverX)) EUB0000092b MAP3K19; conditions: at 10 µM
T3 sequence (whole entry): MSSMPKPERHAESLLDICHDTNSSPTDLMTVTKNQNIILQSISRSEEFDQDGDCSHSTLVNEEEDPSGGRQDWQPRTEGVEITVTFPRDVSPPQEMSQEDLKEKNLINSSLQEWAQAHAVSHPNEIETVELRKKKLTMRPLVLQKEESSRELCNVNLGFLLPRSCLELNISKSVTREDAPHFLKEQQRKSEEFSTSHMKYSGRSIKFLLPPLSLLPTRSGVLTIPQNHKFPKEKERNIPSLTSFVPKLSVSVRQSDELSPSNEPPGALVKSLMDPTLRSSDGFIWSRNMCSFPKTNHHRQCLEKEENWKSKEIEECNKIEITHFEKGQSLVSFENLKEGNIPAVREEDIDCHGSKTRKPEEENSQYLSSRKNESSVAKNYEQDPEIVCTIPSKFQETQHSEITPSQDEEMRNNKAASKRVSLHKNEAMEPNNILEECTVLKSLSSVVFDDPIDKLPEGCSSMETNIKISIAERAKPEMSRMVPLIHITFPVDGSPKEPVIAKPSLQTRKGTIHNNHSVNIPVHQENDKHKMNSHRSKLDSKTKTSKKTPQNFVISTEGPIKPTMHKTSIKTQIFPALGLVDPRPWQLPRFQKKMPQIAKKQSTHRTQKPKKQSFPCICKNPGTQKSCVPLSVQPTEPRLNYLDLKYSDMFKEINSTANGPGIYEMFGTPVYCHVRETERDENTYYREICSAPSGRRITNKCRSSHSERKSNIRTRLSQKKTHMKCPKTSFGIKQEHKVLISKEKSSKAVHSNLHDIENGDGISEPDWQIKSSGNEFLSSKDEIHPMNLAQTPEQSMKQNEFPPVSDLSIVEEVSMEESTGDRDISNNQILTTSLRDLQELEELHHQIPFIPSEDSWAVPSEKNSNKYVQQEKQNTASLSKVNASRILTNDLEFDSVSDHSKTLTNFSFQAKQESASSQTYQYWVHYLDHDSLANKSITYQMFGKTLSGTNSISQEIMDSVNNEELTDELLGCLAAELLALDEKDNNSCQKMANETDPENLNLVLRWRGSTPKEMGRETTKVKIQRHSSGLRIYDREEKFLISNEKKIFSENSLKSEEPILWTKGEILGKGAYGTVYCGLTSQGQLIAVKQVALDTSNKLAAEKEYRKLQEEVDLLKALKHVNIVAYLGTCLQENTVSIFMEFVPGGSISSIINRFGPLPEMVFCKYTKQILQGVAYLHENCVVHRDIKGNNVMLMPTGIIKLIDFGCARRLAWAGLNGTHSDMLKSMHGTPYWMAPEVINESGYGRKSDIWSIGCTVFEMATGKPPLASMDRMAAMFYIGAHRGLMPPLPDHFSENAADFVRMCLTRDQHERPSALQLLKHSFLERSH

Q: Which % of control [1] does the source give for O=C(NOC[C@H](O)CO)c1ccc(F)c(F)c1Nc1ccc(I)cc1F here?
A: 100%

Q: CC[C@@H]1[C@H](F)C(=O)N[C@@H]1COc1nccc2cc(C(N)=O)c(OC)cc12 [ZIMLOVISERTIB] was tested. Which % of inhibition ([2]; at 0.01 µM) did it give?
A: 8.7%

Q: What about the % of inhibition ([2]; at 0.04 µM) of the same molecule?
A: 1.8%

Q: What about the % of inhibition ([2]; at 0.2 µM) of the same molecule?
A: -1.4%

Q: What about the % of inhibition ([2]; at 1 µM) of the same molecule?
A: -7.6%

Q: What about the % of inhibition ([2]; at 5 µM) of the same molecule?
A: 12.6%

Q: For CCC(=O)N1CCN(c2ccc(-n3c(=O)ccc4cnc5ccc(-c6cnc7ccccc7c6)cc5c43)cc2C(F)(F)F)CC1, which % of control [3] is on record?
A: 38%
